Test results from ChEMBL document CHEMBL1201862, “PubChem BioAssay data set” (2004).
“And” between values parts separate entries of the source, which are not always exact repeats. Equal values may be shown once. Where a name gives a salt, the structure may show the parent alone.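 The compound was tested at five concentrations on cells cultured in 96-well plates, with a 48-hour exposure period. Here, GI50 denotes the concentration required for 50% inhibition of growth.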 The source made the active and inactive calls. Cut-off read from the data, not from the text of the source: active = GI50 up to about 1.1 µM and inactive = higher.

Legend:
Assay in all cases: DTP human tumour cell line panel, 48 h
[1] = system: MDA-MB-231
[2] = system: OVCAR-3
[3] = system: ACHN
[4] = system: HT-29
[5] = system: M14
[6] = system: NCI-H226
[7] = system: KM12
[8] = system: TK-10
[9] = system: Hs-578T
[10] = system: NCI-H23
[11] = system: MOLT-4
[12] = system: UO-31
[13] = system: MCF7
[14] = system: NCI/ADR-RES
[15] = system: OVCAR-5
[16] = system: OVCAR-4
[17] = system: SR
[18] = system: DMS-273
[19] = system: DLD-1
[20] = system: HOP-18

Row | SMILES | GI50 [1] | GI50 [2] | GI50 [3] | GI50 [4] | GI50 [5] | GI50 [6] | GI50 [7] | GI50 [8] | GI50 [9] | GI50 [10] | GI50 [11] | GI50 [12] | GI50 [13] | GI50 [14] | GI50 [15] | GI50 [16] | GI50 [17] | GI50 [18] | GI50 [19] | GI50 [20]
1 | COc1ccc(N2C(=O)C3c4[nH]c5cc(C)ccc5c4C4CCC(C(C)(C)C)CC4C3C2=O)cc1 (centres undefined) | > 10 µM (inactive) | > 10 µM (inactive) | > 10 µM (inactive) | > 10 µM (inactive) | > 10 µM (inactive) | > 10 µM (inactive) | > 10 µM (inactive) | > 10 µM (inactive) | 3.08 µM (inactive) | > 10 µM (inactive) | > 10 µM (inactive) | > 10 µM (inactive) | > 10 µM (inactive) | 3.66 µM (inactive) | > 10 µM (inactive) | 4.36 µM (inactive) | > 10 µM (inactive) | – | – | –
2 | O=C(O)CN1CCCC(Cc2c[nH]c3ccccc23)C1 (centres undefined) | > 100 µM (inactive) | > 100 µM (inactive) | > 100 µM (inactive) | – | > 100 µM (inactive) | > 100 µM (inactive) | > 100 µM (inactive) | > 100 µM (inactive) | > 100 µM (inactive) | > 100 µM (inactive) | – | > 100 µM (inactive) | – | > 100 µM (inactive) | > 100 µM (inactive) | > 100 µM (inactive) | – | – | – | –
3 | CCOC(=O)CNC(=O)N(CC)C12CC3CC(CC(C3)C1)C2 | – | 114 µM (inactive) | – | 132 µM (inactive) | – | 146 µM (inactive) | 125 µM (inactive) | – | – | 159 µM (inactive) | 119 µM (inactive) | 149 µM (inactive) | 148 µM (inactive) | 151 µM (inactive) | 161 µM (inactive) | 188 µM (inactive) | – | 132 µM (inactive) | 34.7 µM (inactive) | 179 µM (inactive)
4 | O=C1c2cccc3cc4ccccc4c(c23)C(=O)N1CCNCCN1C(=O)c2cccc3cc4ccccc4c(c23)C1=O | – | 0.484 µM (active) | – | 0.351 µM (active) | – | 2.21 µM (inactive) | 3.93 µM (inactive) | – | – | 0.364 µM (active) | 0.097 µM (active) | 0.277 µM (active) | 0.282 µM (active) | 0.522 µM (active) | 0.406 µM (active) | 0.625 µM (active) | – | 0.277 µM (active) | 0.714 µM (active) | 0.231 µM (active)
5 | NC(=S)N/N=C/c1ccc(OC(=O)COc2ccccc2Cl)cn1 | – | 23.2 µM (inactive) | – | 48 µM (inactive) | – | 26.5 µM (inactive) | 75.7 µM (inactive) | – | – | 12.9 µM (inactive) | 16.3 µM (inactive) | 36.8 µM (inactive) | 10.5 µM (inactive) | 15.4 µM (inactive) | 44.4 µM (inactive) | 32.4 µM (inactive) | – | 21 µM (inactive) | 33 µM (inactive) | 39.3 µM (inactive)
6 | O=C(O)c1cccc2cccc(-c3c4ccc(=O)cc-4oc4cc(O)ccc34)c12 | 81.1 µM (inactive) | 21.3 µM (inactive) | > 100 µM (inactive) | > 100 µM (inactive) | > 100 µM (inactive) | – | > 100 µM (inactive) | > 100 µM (inactive) | 93.1 µM (inactive) | > 100 µM (inactive) | 27.3 µM (inactive) | > 100 µM (inactive) | > 100 µM (inactive) | > 100 µM (inactive) | > 100 µM (inactive) | > 100 µM (inactive) | – | – | – | –
7 | CSc1sc(=S)sc1SC | – | > 100 µM (inactive) | – | > 100 µM (inactive) | – | > 100 µM (inactive) | > 100 µM (inactive) | – | – | > 100 µM (inactive) | > 100 µM (inactive) | > 100 µM (inactive) | > 100 µM (inactive) | 25.7 µM (inactive) | > 100 µM (inactive) | > 100 µM (inactive) | – | 77.8 µM (inactive) | > 100 µM (inactive) | > 100 µM (inactive)
8 | CC1CC2C3CC(F)C4=CC(=O)C=CC4(C)C3(F)C(O)CC2(C)C1(O)C(=O)COC(=O)C(C)(C)C (centres undefined) | – | > 100 µM (inactive) | 32.7 µM (inactive) | > 100 µM (inactive) | > 100 µM (inactive) | > 100 µM (inactive) | > 100 µM (inactive) | 77.1 µM (inactive) | – | > 100 µM (inactive) | 66.2 µM (inactive) | > 100 µM (inactive) | – | – | > 100 µM (inactive) | 27.4 µM (inactive) | > 100 µM (inactive) | > 100 µM (inactive) | > 100 µM (inactive) | –
9 | CC(=O)N/C(=C\c1ccc(/C=C(\NC(C)=O)C2=NC3C(=O)c4ccccc4C(=O)C3N2)cc1)C1=NC2C(=O)c3ccccc3C(=O)C2N1 (centres undefined) | – | 49.3 µM (inactive) | 4.1 µM (inactive) | > 100 µM (inactive) | 49.8 µM (inactive) | 15.4 µM (inactive) | 3.63 µM (inactive) | 12.1 µM (inactive) | – | 26.7 µM (inactive) | 2.44 µM (inactive) | 2.97 µM (inactive) | – | – | 75 µM (inactive) | > 100 µM (inactive) | – | 19.6 µM (inactive) | 7.71 µM (inactive) | 71.3 µM (inactive)
10 | O=C1c2ccccc2C(=O)c2c1ccc1c2N=C(c2ccc(F)cc2)CC(c2ccc(Cl)c(Cl)c2)N1 (centres undefined) | – | – | 13.9 µM (inactive) | 13.5 µM (inactive) | 18.2 µM (inactive) | 22.2 µM (inactive) | 6 µM (inactive) | 13.8 µM (inactive) | – | 16.6 µM (inactive) | 7.43 µM (inactive) | 10.8 µM (inactive) | – | – | 14.7 µM (inactive) | 19 µM (inactive) | 5.93 µM (inactive) | – | 12.9 µM (inactive) | –
11 | NC(=O)Nc1cc(O)ccc1/N=N/c1ccc(S(=O)(=O)Nc2ccccn2)cc1 | – | > 100 µM (inactive) | > 100 µM (inactive) | > 100 µM (inactive) | > 100 µM (inactive) | – | > 100 µM (inactive) | > 100 µM (inactive) | – | > 100 µM (inactive) | 5.9 µM (inactive) | > 100 µM (inactive) | – | – | > 100 µM (inactive) | > 100 µM (inactive) | – | > 100 µM (inactive) | – | > 100 µM (inactive)
12 | CCC1OC(=O)C(C)C(OC2CC(C)(O)C(O)C(C)O2)C(C)C(O)C(C)(O)CC(C)C(=O)C(C)C(O)C1C (centres undefined) | – | > 300 µM (inactive) | – | > 300 µM (inactive) | – | > 300 µM (inactive) | 225 µM (inactive) | – | – | > 300 µM (inactive) | > 300 µM (inactive) | > 300 µM (inactive) | > 300 µM (inactive) | > 300 µM (inactive) | > 292 µM (inactive) | > 300 µM (inactive) | – | > 300 µM (inactive) | > 300 µM (inactive) | > 300 µM (inactive)
13 | CCC1C[N+]23CCc4c([nH]c5ccccc45)C2CC1CC3 (centres undefined) | – | 55.5 µM (inactive) | > 100 µM (inactive) | > 100 µM (inactive) | > 100 µM (inactive) | 45.9 µM (inactive) | 64.7 µM (inactive) | 74.3 µM (inactive) | – | 69.2 µM (inactive) | 29.8 µM (inactive) | 41.4 µM (inactive) | – | – | > 100 µM (inactive) | 81.5 µM (inactive) | 39.3 µM (inactive) | 55.5 µM (inactive) | 76 µM (inactive) | –
14 | COC(=O)C1=CC[C@@H]2C(C(=O)O)=CO[C@@H](OC3OC(CO)C(O)C(O)C3O)[C@H]12 (some centres undefined) | – | > 300 µM (inactive) | – | > 300 µM (inactive) | – | 299 µM (inactive) | > 300 µM (inactive) | – | – | > 300 µM (inactive) | > 300 µM (inactive) | > 300 µM (inactive) | > 114 µM (inactive) | > 300 µM (inactive) | > 300 µM (inactive) | > 300 µM (inactive) | – | > 300 µM (inactive) | > 189 µM (inactive) | 13.7 µM (inactive)
15 | CCC/C=C/C=C\C(=O)O[C@@H]1[C@@H](C)[C@]2(O)[C@@H]3C=C(C)C(=O)[C@H]3CC(COC(C)=O)=C[C@H]2[C@@H]2C(C)(C)[C@]12OC(C)=O | – | 46.7 µM (inactive) | – | 40 µM (inactive) | – | 46.6 µM (inactive) | 47.9 µM (inactive) | – | – | 33.7 µM (inactive) | 10.2 µM (inactive) | 46.5 µM (inactive) | 37.8 µM (inactive) | 50.7 µM (inactive) | 66.5 µM (inactive) | 30.2 µM (inactive) | – | 22.6 µM (inactive) | 16.7 µM (inactive) | 28 µM (inactive)
16 | Nc1ccc2cc3ccc(N)cc3nc2c1 [PROFLAVINE SULFATE] | 1.62 µM (inactive) | 2.77 µM (inactive) and 1.51 µM (inactive) | 789 nM (active) and 537 nM (active) | 953 nM (active) and 668 nM (active) | – | – | – | 2.7 µM (inactive) and 4.33 µM (inactive) | 2.57 µM (inactive) | – | 338 nM (active) and 284 nM (active) | 690 nM (active) and 652 nM (active) | 0.638 µM (active) | 1.58 µM (inactive) | 3.05 µM (inactive) | – | 0.444 µM (active) | 0.839 µM (active) | 0.771 µM (active) | 2.76 µM (inactive)
